Our source for the EC50 values is patent publication US9266832B2, “Compounds for the treatment of neurodegenerative diseases” (Katholieke Universiteit Levun, priority 2010, dated 2016).

SMILES strings stand for the structures.

The subject of this assay is M17-TAU P301L cells. Nature of the assay: Tau-induced toxicity experiment: LDH leakage of retinoic acid incubated M17-TAU P301L cells. The note with it: Homo sapiens, Neuroblastoma cell, 168 h; reduction of LDH activity of retinoic acid incubated M17-TAU P301L neuroblastoma cells, 7 days. It is filed as cell-based. The source says: A TAU expression plasmid was constructed by sub-cloning the cDNA of human TAU-P301L (encoding for TAU with proline 301 substituted by a leucine residue) into mammalian expression vector pcDNA3.1 resulting in plasmid pcDNA3.1-TAU P301L. Plasmids pcDNA3.1 and pcDNA3.1-TAU P301L were transfected to human neuroblastoma cells ([…]; ATCC No. CRL-2267) and independent clonal lines with the plasmids stably integrated into the genome were selected. […] Expression of the TAU P301L genes in the cell lines was confirmed by Western analysis.
In degenerated or dead cells lactate dehydrogenase (LDH) is leaked out of the cells into the extracellular environment due to a loss of plasma-membrane integrity. This principle was used to determine cytotoxicity by quantifying the level of leaked LDH into the growth medium.
The detailed method for determining TAU cytotoxicity was as follows: From appropriate precultures of M17-3.1 and M17-TAU(P301L) cells were seeded at 2500 cells/cm2 in Optimem Reduced Serum without phenol red (Gibco, Cat. 31985-047) supplemented with 1% fetal calf serum, 1 mM sodium pyruvate, 1× non-essential amino acids, 500 μg/ml G418 0.5× antibiotic/antimycotic. After 3 h of incubation at 37° C./5% CO2 1 volume of Optimem Reduced Serum (same as described above; except without fetal calf serum) supplemented with 2.5 μM retinoic acid (RA) was added. The cells were further incubated for 7 days. Subsequently, LDH activity was determined using Promega Cytotox 96 Non-Radioactive cytotoxicity assay, (Cat. G1780) according the supplier's instructions.
The M17-TAU P301L cell line made it possible to assess the ability of novel compounds to counteract TAU cytotoxicity. […] These measurements were used to calculate EC50 values of table 2.
For orientation: LDH leaks from cells whose membrane has failed.
As to `O=C(NCCc1c[nH]c2ccc(Cl)cc12)c1cccc(Cn2cccn2)c1` [Cpd006, 3-((1H-pyrazol-1-yl)methyl)-N-(2-(5-chloro-1H-indol-3-yl)ethyl)benzamide], a half-maximal effect (EC50) was put at 256 nM.

Take `O=C(NCCc1c[nH]c2ccc(Cl)cc12)c1ccccc1Cc1ccccc1` [Cpd009, 2-benzyl-N-(2-(5-chloro-1H-indol-3-yl)ethyl)benzamide]: the EC50 is 240 nM.

`O=C(NCCc1c[nH]c2ccc(Cl)cc12)c1cccc(Cc2ccccc2)c1` [Cpd010, 3-benzyl-N-(2-(5-chloro-1H-indol-3-yl)ethyl)benzamide]: the midpoint of the response, the EC50, lay at 78 nM.

`O=C(NCCc1c[nH]c2ccc(Cl)cc12)c1ccc(Cn2cccn2)cc1` [Cpd011, 4-((1H-pyrazol-1-yl)methyl)-N-(2-(5-chloro-1H-indol-3-yl)ethyl)benzamide] showed an EC50 of 173 nM. Take `O=C(NCCc1c[nH]c2ccc(Cl)cc12)c1ccc(Cn2ccnc2)cc1` [Cpd012, 4-((1H-imidazol-1-yl)methyl)-N-(2-(5-chloro-1H-indol-3-yl)ethyl)benzamide]: the midpoint of the response, the EC50, lay at 486 nM.

With `O=C(NCCc1c[nH]c2ccc(Cl)cc12)c1ccc(Cc2ccccc2)cc1` [Cpd015, 4-benzyl-N-(2-(5-chloro-1H-indol-3-yl)ethyl)benzamide], the concentration for a half-maximal effect (EC50) came to 154 nM. Turning to `O=C(NCCc1c[nH]c2ccc(Cl)cc12)c1ccc(CNCC2CCCCC2)cc1` [Cpd018, N-(2-(5-chloro-1H-indol-3-yl)ethyl)-4-((cyclohexylmethylamino)methyl)benzamide], the EC50 worked out at 168 nM. In the case of `O=C(NCCc1c[nH]c2ccc(Cl)cc12)c1ccc(CNCc2ccccc2)cc1` [Cpd019, 4-((benzylamino)methyl)-N-(2-(5-chloro-1H-indol-3-yl)ethyl)benzamide], the EC50 is 103 nM.

For `O=C(NCCc1c[nH]c2ccc(Cl)cc12)c1cccc(CNCc2cccs2)c1` [Cpd022, N-(2-(5-chloro-1H-indol-3-yl)ethyl)-3-((thiophen-2-ylmethylamino)methyl)benzamide], the half-maximal effective concentration (EC50) stood at 159 nM. With `O=C(NCCc1c[nH]c2ccc(Cl)cc12)c1cccc(CNCc2ccccc2)c1` [Cpd023, 3-((benzylamino)methyl)-N-(2-(5-chloro-1H-indol-3-yl)ethyl)benzamide], the EC50 was found to be 94 nM. This EC50 lies about 1.7-fold lower than the previous one. For the compound `O=C(NCCc1c[nH]c2ccc(Cl)cc12)c1cccc(CNC2CCCCC2)c1` [Cpd024, N-(2-(5-chloro-1H-indol-3-yl)ethyl)-3-((cyclohexylamino)methyl)benzamide], the EC50 was 724 nM. Compound `O=C(NCCc1c[nH]c2ccc(Cl)cc12)c1ccc(CNCc2cccs2)cc1` [Cpd026, N-(2-(5-chloro-1H-indol-3-yl)ethyl)-4-((thiophen-2-ylmethylamino)methyl)benzamide] registered an EC50 of 83 nM. This EC50 lies about 8.7-fold lower than the previous one.

Compound `Cc1ccccc1Cc1ccc(C(=O)NCCc2c[nH]c3ccc(Cl)cc23)cc1` [Cpd028, N-(2-(5-chloro-1H-indol-3-yl)ethyl)-4-(2-methylbenzyl)benzamide] showed an EC50 of 370 nM.

Compound `COc1ccccc1Cc1ccc(C(=O)NCCc2c[nH]c3ccc(Cl)cc23)cc1` [Cpd029, N-(2-(5-chloro-1H-indol-3-yl)ethyl)-4-(2-methoxybenzyl)benzamide] registered a concentration giving a half-maximal response (EC50) of 84 nM. For `COc1ccccc1Cc1cccc(C(=O)NCCc2c[nH]c3ccc(Cl)cc23)c1` [Cpd030, N-(2-(5-chloro-1H-indol-3-yl)ethyl)-3-(2-methoxybenzyl)benzamide], the half-maximal effective concentration (EC50) came to 96 nM. Consider `N#Cc1ccc(Cc2ccc(C(=O)NCCc3c[nH]c4ccc(Cl)cc34)cc2)cc1` [Cpd031, N-(2-(5-chloro-1H-indol-3-yl)ethyl)-4-(4-cyanobenzyl)benzamide], for which the response was half-maximal at 16 nM (EC50). The compound `N#Cc1cccc(Cc2ccc(C(=O)NCCc3c[nH]c4ccc(Cl)cc34)cc2)c1` [Cpd032, N-(2-(5-chloro-1H-indol-3-yl)ethyl)-4-(3-cyanobenzyl)benzamide] gave an EC50 of 14 nM. Consider `Cc1ccc(Cc2ccc(C(=O)NCCc3c[nH]c4ccc(Cl)cc34)cc2)cc1` [Cpd033, N-(2-(5-chloro-1H-indol-3-yl)ethyl)-4-(4-methylbenzyl)benzamide], for which the response was half-maximal at 31 nM (EC50).

A word on the EC50: it is the concentration at which the effect is half-maximal.
